Activity calls are given as the source filed them. No cut-off for these calls is given here.
How the values were obtained:
[1] = system: Rattus norvegicus; experiment: Antiinflammatory activity in Albino Wistar rat assessed as inhibition of carrageenan-induced hind paw edema at 0.05 mmol/kg, po treated 1 hr before carrageenan challenge by plethysmometer analysis; type: functional, organism-based; conditions: TDE = time-dependent effect
[2] = system: Rattus norvegicus; experiment: Antiinflammatory activity against carrageenan-induced hind paw Albino Wistar rat model assessed as reduction in serum IL-1 beta level at 0.05 mmol/kg, po treated 1 hr before carrageenan challenge by ELISA; type: functional
[3] = system: Rattus norvegicus; experiment: Antiinflammatory activity against carrageenan-induced hind paw Albino Wistar rat model assessed as reduction in serum TNF-alpha level at 0.05 mmol/kg, po treated 1 hr before carrageenan challenge by ELISA; type: functional
[4] = system: Rattus norvegicus; experiment: Antiinflammatory activity against carrageenan-induced hind paw Albino Wistar rat model assessed as reduction in serum COX2 level at 0.05 mmol/kg, po treated 1 hr before carrageenan challenge by ELISA; type: functional
[5] = molecular target: Prostaglandin G/H synthase 1 (Homo sapiens, UniProt P23219); experiment: Inhibition of COX-1 (unknown origin)
Prostaglandin G/H synthase 1, sequence (P23219 whole entry): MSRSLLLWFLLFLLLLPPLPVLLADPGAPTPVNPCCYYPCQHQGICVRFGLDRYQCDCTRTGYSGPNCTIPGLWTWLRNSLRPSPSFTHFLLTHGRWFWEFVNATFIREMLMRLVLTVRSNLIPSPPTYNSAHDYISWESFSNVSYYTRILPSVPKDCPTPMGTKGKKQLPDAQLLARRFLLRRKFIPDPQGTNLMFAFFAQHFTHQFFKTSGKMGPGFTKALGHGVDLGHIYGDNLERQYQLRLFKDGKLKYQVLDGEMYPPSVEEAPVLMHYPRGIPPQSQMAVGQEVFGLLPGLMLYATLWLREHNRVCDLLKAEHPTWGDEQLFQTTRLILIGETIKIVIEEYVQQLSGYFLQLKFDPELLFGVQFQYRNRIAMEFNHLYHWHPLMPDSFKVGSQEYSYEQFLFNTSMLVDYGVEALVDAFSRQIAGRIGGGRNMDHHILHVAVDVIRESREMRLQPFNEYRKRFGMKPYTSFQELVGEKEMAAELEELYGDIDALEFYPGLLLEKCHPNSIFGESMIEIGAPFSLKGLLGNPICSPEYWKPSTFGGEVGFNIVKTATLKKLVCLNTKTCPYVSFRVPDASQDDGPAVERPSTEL

[6] = molecular target: T1, Prostaglandin G/H synthase 2 (Homo sapiens, UniProt P35354); experiment: Inhibition of COX-2 (unknown origin)
T1 sequence (P35354 whole entry): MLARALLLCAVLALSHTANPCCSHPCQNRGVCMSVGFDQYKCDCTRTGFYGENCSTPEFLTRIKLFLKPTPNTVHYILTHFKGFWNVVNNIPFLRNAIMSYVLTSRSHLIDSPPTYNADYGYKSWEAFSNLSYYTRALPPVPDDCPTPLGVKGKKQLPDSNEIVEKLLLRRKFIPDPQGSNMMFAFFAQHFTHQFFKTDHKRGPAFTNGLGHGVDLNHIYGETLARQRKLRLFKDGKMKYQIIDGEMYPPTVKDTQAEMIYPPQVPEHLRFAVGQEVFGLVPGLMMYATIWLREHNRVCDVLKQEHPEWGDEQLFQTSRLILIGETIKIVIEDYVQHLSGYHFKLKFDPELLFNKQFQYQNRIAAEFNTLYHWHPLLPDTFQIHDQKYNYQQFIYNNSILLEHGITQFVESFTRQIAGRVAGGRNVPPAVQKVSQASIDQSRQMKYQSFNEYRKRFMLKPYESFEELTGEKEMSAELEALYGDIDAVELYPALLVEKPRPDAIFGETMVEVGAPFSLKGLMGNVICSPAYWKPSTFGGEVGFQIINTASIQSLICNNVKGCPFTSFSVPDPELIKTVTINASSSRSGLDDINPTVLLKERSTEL

[7] = system: HeLa; experiment: Decrease in COX-2 gene expression in human HeLa cells at 10 uM after 24 hrs by real time PCR analysis relative to celecoxib; type: functional
[8] = system: Rattus norvegicus; experiment: Ulcerogenicity in Albino Wistar rat assessed as gastric ulceration and rupture of gastric mucosal layer at 0.15 mmol/kg, po measured after 5 hrs; type: toxicity, organism-based, Gastric mucosa; conditions: in vivo
[9] = system: Rattus norvegicus; experiment: Antiinflammatory activity against carrageenan-induced hind paw Albino Wistar rat model assessed as reduction in nitric oxide level in hind paw at 0.05 mmol/kg, po treated 1 hr before carrageenan challenge by griess reagent based microplate reader analysis; type: functional, organism-based
[10] = system: Mus musculus; experiment: Antinociceptive activity in mouse assessed as inhibition of acetic acid-induced writhing at 0.05 mmol/kg, po administered 30 mins prior to acetic acid challenge measured for 20 mins after acetic acid injection; type: functional
[11] = system: Rattus norvegicus; experiment: Antiinflammatory activity in Albino Wistar rat assessed as inhibition of carrageenan-induced hind paw edema at 0.05 mmol/kg, po treated 1 hr before carrageenan challenge measured 5 hrs post-carrageenan injection by plethysmometer analysis; type: functional
[12] = system: Rattus norvegicus; experiment: Antiinflammatory activity in Albino Wistar rat assessed as inhibition of carrageenan-induced hind paw edema at 0.05 mmol/kg, po treated 1 hr before carrageenan challenge measured 3 hrs post-carrageenan injection by plethysmometer analysis; type: functional
[13] = system: Rattus norvegicus; experiment: Antiinflammatory activity against carrageenan-induced hind paw Albino Wistar rat model assessed as reduction in nitric oxide level in hind paw at 0.05 mmol/kg, po treated 1 hr before carrageenan challenge measured per mg of wet tissue by griess reagent based microplate reader analysis; type: functional
[14] = system: Rattus norvegicus; experiment: Antioxidant activity in carrageenan-induced hind paw Albino Wistar rat model assessed as increase in GSH level in hind paw joint at 0.05 mmol/kg, po treated 1 hr before carrageenan challenge measured per gm of tissue by plate reader analysis (reference value: 0.58 +/-0.02 ug); type: functional
[15] = system: Rattus norvegicus; experiment: Antioxidant activity in carrageenan-induced hind paw Albino Wistar rat model assessed as inhibition of lipid peroxidation by measuring TBARS level in hind paw at 0.05 mmol/kg, po treated 1 hr before carrageenan challenge by microplate reader analysis; type: functional

Structure (SMILES)	inhibition [1]	IC50 [5] [µM]	IC50 [6] [µM]	inhibition [9]	also measured
Brc1ccc(-n2cc(CSc3nc4ccccc4o3)nn2)cc1	tde	186	2.8	Active	inhibition [2]: Active; inhibition [3]: Active; inhibition [4]: Active; fold change (FC) [7]: 0.79; Activity [8]: Non-toxic
Fc1ccccc1-n1cc(CSc2nc3ccccc3o2)nn1	tde	24.2	2.4	Active	–
c1cncc(-n2cc(CSc3nc4ccccc4o3)nn2)c1	tde	96.6	3.98	Active	–
c1ccc(-n2cc(CSc3nc4ccccc4o3)nn2)cc1	tde	107	6.42	Active	–
Fc1ccc(-n2cc(CSc3nc4ccccc4o3)nn2)cc1	tde	192	5.21	Active	–
COc1ccc(-n2cc(CSc3nc4ccccc4o3)nn2)cc1	tde	89.4	2.3	Active	inhibition [2]: Active; Activity [3]: 3.1 pg/mL; Activity [4]: 6.54 nmol/min/mL; inhibition in vivo at 50 µmol/kg [10]: 55.5%; Activity [8]: Non-toxic
CCc1ccc(-n2cc(CSc3nc4ccccc4o3)nn2)cc1	tde	246	3.8	Active	inhibition in vivo at 50 µmol/kg [11]: 61.1%; inhibition in vivo at 50 µmol/kg [12]: 66.7%; inhibition [2]: Active; inhibition [3]: Active; inhibition [4]: Active; fold change (FC) [7]: 0.94; Activity [13]: 5.1 µmol; Activity [14]: 0.84 µg; Activity [8]: Non-toxic
Cc1ccc(-n2cc(CSc3nc4ccccc4o3)nn2)cc1C	tde	140	4.35	Active	–
Clc1ncccc1-n1cc(CSc2nc3ccccc3o2)nn1	tde	103	5.03	Active	–
Clc1cccc(-n2cc(CSc3nc4ccccc4o3)nn2)c1	tde	88.3	4.63	Active	–
CCOc1ccc(-n2cc(CSc3nc4ccccc4o3)nn2)cc1	tde	163	3.5	Active	Activity [2]: 2.66 pg/mL; inhibition [3]: Active; inhibition [4]: Active; Activity [14]: 0.84 µg; Activity [15]: 5.1 nmol; Activity [8]: Non-toxic
CC(C)(C)c1ccc(-n2cc(CSc3nc4ccccc4o3)nn2)cc1	tde	154	3.85	Active	–
Brc1ccccc1-n1cc(CSc2nc3ccccc3o2)nn1	tde	38.4	2.75	Active	–
Cc1ccc(-c2cc(C(F)(F)F)nn2-c2ccc(S(N)(=O)=O)cc2)cc1 [CELECOXIB]	–	–	–	Active	inhibition in vivo at 50 µmol/kg [11]: 65.5%; inhibition in vivo at 50 µmol/kg [12]: 72.2%; Activity [2]: 2.9 pg/mL; Activity [3]: 3.35 pg/mL; Activity [4]: 7.9 nmol/min/mL; Activity [13]: 5.5 µmol; Activity [14]: 0.81 µg; Activity [15]: 6.3 nmol; inhibition in vivo at 50 µmol/kg [10]: 70.9%
O=[N+]([O-])c1cccc(-n2cc(CSc3nc4ccccc4o3)nn2)c1	tde	104	9.58	Active	–
O=[N+]([O-])c1ccc(-n2cc(CSc3nc4ccccc4o3)nn2)cc1	tde	115	9.87	Active	–
Cc1ccccc1-n1cc(CSc2nc3ccccc3o2)nn1	tde	132	4.68	Active	–
Clc1ccc(-n2cc(CSc3nc4ccccc4o3)nn2)cc1	tde	80.8	1.9	Active	inhibition in vivo at 50 µmol/kg [11]: 55.5%; inhibition in vivo at 50 µmol/kg [12]: 68.9%; inhibition [2]: Active; inhibition [3]: Active; inhibition [4]: Active; inhibition in vivo at 50 µmol/kg [10]: 51.5%; Activity [8]: Non-toxic
Clc1ccccc1-n1cc(CSc2nc3ccccc3o2)nn1	tde	44.4	3.53	Active	–

Source: ChEMBL document CHEMBL3259784, “Synthesis of novel 2-mercaptobenzoxazole based 1,2,3-triazoles as inhibitors of proinflammatory cytokines and suppressors of COX-2 gene expression” (Eur J Med Chem, 2014)
